pIC50: −log10 of the molar value.
Key:
[1] = test system: COLO205 human colon adenocarcinoma cell; assay: Growth inhibition (cytotoxicity), COLO205 assay, Cell Titer Glo; format: cell-based; conditions: COLO 205, 72 h, COLO205 cells, 72 hour incubation
Description: (§1) The cytotoxicity of each of the MC compounds as described herein was evaluated in the following cell types: A549 human alveolar epithelial cell, PC3 human prostate carcinoma cell, COLO205 human colon adenocarcinoma cell, HEPG2 human hepatoma, OVCAR3 human ovary adenocarcinoma cell, and HL60 human acute myelocytic leukemia (AML) cell.
(§2) A549, PC3, COLO205 and HEPG2 cells were cultured in DMEM (Invitrogen Corporation) with 10% fetal bovine serum, whereas OVCAR3 and HL60 were cultured in the same medium but with 20% fetal bovine serum. For cytotoxocoty measurements the cells were seeded in 96 or 384 well tissue culture treated microtitre plates overnight. Compounds were diluted in appropriate buffers and added to the cells the next day. Following a further 72 hour incubation, cell viability was determined using Cell Titer Glo (Promega Corporation) according to the manufacturers' instructions, and the luminescence measured in Luminoskan Ascent (Thermo Fisher Scientific Inc.).

[2] = test system: HL60 human acute myelocytic leukemia (AML) cell; assay: Growth inhibition (cytotoxicity), HL60A assay, Cell Titer Glo; format: cell-based; conditions: HL-60, 72 h, HL60 cells, 72 hour incubation
Description: as §1, §2

[3] = test system: OVCAR3 human ovary adenocarcinoma cell; assay: Growth inhibition (cytotoxicity), OVCAR3 assay, Cell Titer Glo; format: cell-based; conditions: OVCAR3 cells, 72 hour incubation
Description: as §1, §2

[4] = test system: PC3 human prostate carcinoma cell; assay: Growth inhibition (cytotoxicity), PC3A assay, Cell Titer Glo; format: cell-based; conditions: PC-3, 72 h, PC3 cells, 72 hour incubation
Description: as §1, §2

[5] = Microsomal stability assay; format: in vitro ADME; conditions: human, human liver microsomes, pH 7.4, human liver microsomes, 50 μm, 37° C.; read-out: T1/2, 50 μm microsomal stability assay
Description: 50 μL test sample (50 mM), 25 μL human liver microsomes (20 mg/ml, BD Gentest, catalog no. 452161), 281 μL potassium phosphate buffer (100 mM, pH 7.4), 5 μL NaDPH regenerating system, solution B (BD Biosciences, catalog no. 451200), and 114 μL of water were pre-incubated for 5 min at 37° C. The reaction was initiated by the addition of 25 μL NaDPH regenerating system, solution A (BD Biosciences, catalog no. 451220). After an incubation period of 0, 15, 30, and 60 min at 37° C., 100 μL of the reaction mixture was transferred to an eppendorf tube, followed by addition of 100 μL chilled acetonitrile to quench the reaction. The sample was then centrifuged at 14,000 rpm for 5 min. The supernatant was submitted for LCMS analysis.

[6] = test system: A549 human alveolar epithelial cell; assay: Growth inhibition (cytotoxicity), A549 assay, Cell Titer Glo; format: cell-based; conditions: A549, 72 h, A549 cells, 72 hour incubation
Description: as §1, §2

[7] = test system: HEPG2 human hepatoma; assay: Growth inhibition (cytotoxicity), HEPG2A assay, Cell Titer Glo; format: cell-based; conditions: HEPG2 cells, 72 hour incubation
Description: as §1, §2

| SMILES | pIC50 [1] | pIC50 [2] | pIC50 ([3]; Homo sapiens, OVCAR-3, 72 h) | pIC50 [4] | half-life at 50 μM [5] | pIC50 [6] | pIC50 ([7]; Homo sapiens, HepG2, 72 h) | pIC50 [7] | pIC50 [3] |
| --- | --- | --- | --- | --- | --- | --- | --- | --- | --- |
| CC[C@H](OC)[C@@H](C)[C@H]1O[C@@H]1C(NCc1ccc(F)cc1)C(C)(O)/C=C/C=C(\C)C1OC(=O)C[C@H](O)CC[C@@](C)(O)[C@@H](OC(C)=O)/C=C/[C@@H]1C.O=CO (single isomer, unassigned) [MC-006c] | ≥ 7.00 | ≥ 7.00 | ≥ 7.00 | ≥ 7.00 | > 30 min |  |  |  |  |
| CC[C@H](OC)[C@@H](C)[C@H]1O[C@@H]1C(NCc1ccncc1)C(C)(O)/C=C/C=C(\C)C1OC(=O)C[C@H](O)CC[C@@](C)(O)[C@@H](OC(C)=O)/C=C/[C@@H]1C (single isomer, unassigned) [MC-007b] |  | ≥ 7.00 |  |  |  | ≥ 6.00 |  |  |  |
| CC[C@H](OC)[C@@H](C)[C@H]1O[C@@H]1C(NCc1ccc(Cl)cc1)C(C)(O)/C=C/C=C(\C)C1OC(=O)C[C@H](O)CC[C@@](C)(O)[C@@H](OC(C)=O)/C=C/[C@@H]1C (single isomer, unassigned) [MC-016a] | ≥ 7.00 | ≥ 7.00 | ≥ 7.00 | ≥ 7.00 |  |  | ≥ 7.00 |  |  |
| CC[C@H](OC)[C@@H](C)[C@H]1O[C@@H]1C(NCc1ccc(OC)cc1)C(C)(O)/C=C/C=C(\C)C1OC(=O)C[C@H](O)CC[C@@](C)(O)[C@@H](OC(C)=O)/C=C/[C@@H]1C (stereo partly drawn) [MC-005] |  |  | ≥ 7.00 |  | 20 min |  | ≥ 7.00 | 7.24 | 7.21 |
| CC[C@H](OC)[C@@H](C)[C@H]1O[C@@H]1C(NCc1ccncc1)C(C)(O)/C=C/C=C(\C)C1OC(=O)C[C@H](O)CC[C@@](C)(O)[C@@H](OC(C)=O)/C=C/[C@@H]1C (stereo partly drawn) [MC-007c] | ≥ 7.00 | ≥ 7.00 |  |  |  | ≥ 6.00 |  |  |  |
| CC[C@H](OC)[C@@H](C)[C@H]1O[C@@H]1C(NCc1ccc(Cl)c(Cl)c1)C(C)(O)/C=C/C=C(\C)C1OC(=O)C[C@H](O)CC[C@@](C)(O)[C@@H](OC(C)=O)/C=C/[C@@H]1C (stereo partly drawn) [MC-059] | ≥ 7.00 |  | ≥ 7.00 | ≥ 7.00 |  |  | ≥ 7.00 |  |  |

— patent US20110237566A1, “Therapeutic Macrolide Compounds and Their Use” (MERLION PHARMACEUTICALS PTE LTD, priority 2008, published 2011)
